Laboratory results as given in PubChem BioAssay (NCI).
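Assay format: 96-well plates, 48-hour exposure. GI50: concentration for 50% inhibition of growth. The concentration for full growth arrest is given as TGI.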

What was measured:
Assay in all cases: DTP human tumour cell line panel, 48 h
ACHN renal = test system: ACHN renal
DU-145 prostate = test system: DU-145 prostate
HCT-116 colon = test system: HCT-116 colon
LOX IMVI melanoma = test system: LOX IMVI melanoma
OVCAR-3 ovarian = test system: OVCAR-3 ovarian
SF-268 CNS = test system: SF-268 CNS
SR leukemia = test system: SR leukemia
SW-620 colon = test system: SW-620 colon
UACC-62 melanoma = test system: UACC-62 melanoma
UO-31 renal = test system: UO-31 renal

SMILES | GI50 (ACHN renal) [µM] | TGI (ACHN renal) [µM] | GI50 (DU-145 prostate) [µM] | TGI (DU-145 prostate) [µM] | GI50 (HCT-116 colon) [µM] | TGI (HCT-116 colon) [µM] | GI50 (LOX IMVI melanoma) [µM] | TGI (LOX IMVI melanoma) [µM] | GI50 (OVCAR-3 ovarian) [µM] | TGI (OVCAR-3 ovarian) [µM] | GI50 (SF-268 CNS) [µM] | TGI (SF-268 CNS) [µM] | GI50 (SR leukemia) [µM] | TGI (SR leukemia) [µM] | GI50 (SW-620 colon) [µM] | TGI (SW-620 colon) [µM] | GI50 (UACC-62 melanoma) [µM] | TGI (UACC-62 melanoma) [µM] | GI50 (UO-31 renal) [µM] | TGI (UO-31 renal) [µM]
O=C(/C=C/c1ccco1)Nc1ncc(Cc2cc(Cl)ccc2Cl)s1 | 0.0664 | > 100 | 0.055 | > 41.6 | 0.0509 | > 100 | 0.0762 | > 100 | 0.0294 | 0.122 | 0.102 | > 100 | 0.0385 | > 100 | 0.0417 | > 100 | 0.0487 | > 100 | 0.162 | > 100
CSc1ccc(-c2cn3ccsc3n2)cc1 | 5.84 | > 100 | 9.07 | > 100 | 3.6 | > 100 | 8.6 | > 100 | > 28.6 | > 100 | 7.54 | > 100 | 1.25 | > 60.8 | 14.6 | > 100 | 25.7 | > 100 | 7.95 | > 100
COc1ccc(/C(=C(\c2ccccc2)[N+](=O)[O-])c2ccc(OCCN3CCCC3)cc2)cc1 | 6.32 | 18.6 | 9.52 | 21.5 | 2.46 | 13.5 | 2.05 | 6.73 | 3.93 | 16.2 | 5.99 | 20 | 1.49 | 5.05 | 1.74 | 4.19 | 1.93 | 4.24 | 1.12 | 4.2
COc1cc([C@H]2OC[C@@H]3C(c4cc(OC)c5c(c4)OCO5)OC[C@H]23)cc(OC)c1OC (stereo not given in full) |  | > 100 |  | > 100 |  | > 100 |  | > 100 |  | > 100 |  | > 100 |  | > 100 |  | > 100 |  | > 100 |  | > 100
